Values after ≈ are worked out from the molar mass of the structure shown.
Conditions: buffer; pH 7.4; 200.0 µM

Structure (SMILES)	solubility kinetic
CC(=O)N1CCN(C(=O)COC(=O)c2ccc(S(C)(=O)=O)cc2)CC1	> 55.3 µg/mL
Nc1cccc(C(=O)N/N=C/c2ccsc2)c1	> 36.8 µg/mL
Nc1nc(F)cc(N2CCCCCC2)n1	> 31.5 µg/mL
O=C(COC(=O)c1c(Cl)ccc(Cl)c1Cl)NCC1CCCO1 (stereo not drawn)	> 55 µg/mL
COc1ccccc1N1CCN(C(=O)Cc2ccc(Cl)cc2)CC1	50.6 µg/mL (≈ 147 µM)
COc1cc(Cl)c(C)cc1NC(=O)CCN1C(=O)NC(C)(C)C1=O	> 53.1 µg/mL
Cc1ccc(NC(=O)O/N=C/c2cccc([N+](=O)[O-])c2)cc1	9.3 µg/mL (≈ 31.1 µM)
COc1cc(C(=O)OCC(=O)N2CCCCCC2)c([N+](=O)[O-])cc1OC	> 55 µg/mL
COc1ccc(CCNC(=O)COC(=O)c2cc3ccccc3oc2=O)cc1OC	> 61.7 µg/mL
CN(C)C(=S)Nc1ccc(S(=O)(=O)N2CCCCC2)cc1	47.1 µg/mL (≈ 144 µM)
N#Cc1ccc(Oc2ccc(NC(=O)C3CC=CCC3C(=O)O)cc2)cc1 (stereo not drawn)	> 54.4 µg/mL
O=[N+]([O-])c1cccc(-c2ccc(CN3CCN(c4ccccc4)CC3)o2)c1	1.4 µg/mL (≈ 3.85 µM)
O=c1c2cc([N+](=O)[O-])ccc2nc2n1CCC2	> 34.7 µg/mL
Cc1ccc(NC(=O)c2ccc([N+](=O)[O-])s2)cc1S(=O)(=O)N1CCOCC1	3.1 µg/mL (≈ 7.53 µM)
CCCS(=O)(=O)N1CCCC(C(=O)N2CCCCC2)C1 (stereo not drawn)	43 µg/mL (≈ 142 µM)
O=C(CCc1ccc(S(=O)(=O)N2CCOCC2)cc1)Nc1c(F)cccc1F	> 61.6 µg/mL
CCN(CC)CC(O)Cn1c(-c2ccccc2Cl)nc2ccccc21 (stereo not drawn)	> 53.7 µg/mL
COc1ccc(Cl)cc1S(=O)(=O)Nc1noc2ccccc12	47 µg/mL (≈ 139 µM)
COc1ccccc1NC(=S)NC1CC2CCC1C2 (stereo not drawn)	> 41.5 µg/mL
CCOC(=O)C1CCCN(/C=C2\SC(=S)N(CC)C2=O)C1 (stereo not drawn)	39.4 µg/mL (≈ 120 µM)
S=C(c1ccc(-c2ccc(Cl)cc2Cl)o1)N1CCCC1	< 0.7 µg/mL

Results, then the compound that gave them:

solubility kinetic	Structure (SMILES)
> 59.4 µg/mL	CN(CCOc1ccc(Cl)cc1)C(=O)C1=CC=CN2CCS(=O)(=O)N=C12
> 29.6 µg/mL	CCCSc1ncccc1C(=O)O
10.6 µg/mL (≈ 36 µM)	O=C(NC(=S)NCc1ccc(Cl)cc1)c1ccco1
> 50.1 µg/mL	Cc1ccc(SCc2nc3ncccn3c2Br)cc1
20.9 µg/mL (≈ 115 µM)	O=C1CCNc2c(Cl)cccc21
> 46.7 µg/mL	COc1ccc(C2=NOC(C(=O)NCc3cccnc3)C2)cc1 (stereo not drawn)
14.9 µg/mL (≈ 49.8 µM)	Cc1ccc(NC(=O)CNC(=O)COc2ccccc2)nc1
53.4 µg/mL (≈ 150 µM)	COc1ccccc1OCCNC(=O)CC(NC(C)=O)c1ccccc1 (stereo not drawn)
> 41.6 µg/mL	COc1ccccc1CC(=O)Nc1ccc(F)cc1F
18.1 µg/mL (≈ 84.6 µM)	C/C(=N\O)c1cccc(Br)c1
> 42.2 µg/mL	CCC(C(=O)N/N=C(\C)c1cccnc1)c1ccccc1 (stereo not drawn)
> 40.9 µg/mL	Cc1cc(C)c(OCCCCCn2ccnc2)c(C)c1
> 54.7 µg/mL	COc1ccc2[nH]cc(CCN3C(=O)c4ccc(C(=O)O)cc4C3=O)c2c1
38.3 µg/mL (≈ 116 µM)	CN(Cc1c(F)cccc1Cl)C(=O)c1cnc2ccccc2n1
1.6 µg/mL (≈ 4.84 µM)	COc1nccc(C(F)(F)F)c1C(=O)Nc1ccc(Cl)cc1
2.1 µg/mL (≈ 5.52 µM)	CCN(CC)C(=S)SCC(=O)Nc1ncc2c(n1)CC(C)(C)CC2=O
> 36.7 µg/mL	CC(C)NC(=O)CCCc1c[nH]c2ccccc12
44.7 µg/mL (≈ 142 µM)	CC(=O)Nc1ccc(C(=O)NCC(c2ccco2)N(C)C)cc1 (stereo not drawn)
> 41.9 µg/mL	CN(C)S(=O)(=O)Nc1cccc(Br)c1
> 54.9 µg/mL	CC1CC(C)CN(C(=O)C(C)N(C)CC(=O)Nc2ccccc2Cl)C1 (stereo not drawn)
> 43.1 µg/mL	Cc1c(CCC(=O)NC2CC2)c(=O)oc2cc(O)ccc12
37.9 µg/mL (≈ 132 µM)	CCCNC(=O)Nc1cc(S(=O)(=O)CC)ccc1O
